# Measurements from patent publication US10722527B2, “Abiraterone acetate lipid formulations” (Capsugel Belgium NV, priority 2015, dated 2020).
# Like-named read-outs stand apart in the source and are kept apart here.
# Assay: Equilibrium solubility of crystalline active in digestion medium / digested placebo LMP formulation
# Type: physicochemical
# Settings: 37 °C, thermodynamic from solid
# Procedure: In both cases, the majority of the active was solubilized in a lipid phase that phase-separated on centrifugation of the samples and most likely consisting of larger lipophilic colloids including multi-lamellar vesicles. Active drug in the aqueous phase (consisting of BS/PL mixed-micelles, lipid-enriched BS/PL mixed micelles and small vesicles) is considered the most readily available form for absorption.
# In vitro digestion tests were performed as follows: 1 g of the active-containing formulation was dispersed in 40 mL fasted intestinal medium (2 mM Tris-maleate, 1.4 mM CaCl2.2H2O, and 150 mM NaCl, 3 mM sodium taurodeoxycholate and 0.75 mM phosphatidylcholine, 37° C.) using a pH-stat titrator as described by the LFCS Consortium (Williams, H D. et al., J. Pharm. Sci. 101 (2012), p. 3360-3380). […] Active concentration in the aqueous phase was measured by HPLC. […] Also thermodynamic solubility of the active was evaluated in digested placebo formulations for determining solubility in digested lipidic colloidal phases.
smiles,measurement,setting,value
CC(=O)O[C@H]1CC[C@@]2(C)C(=CC[C@@H]3[C@@H]2CC[C@]2(C)C(c4cccnc4)=CC[C@@H]32)C1 [Abiraterone acetate],solubility thermodynamic,"pH 6.5, aqueous with cosolvent or surfactant or cyclodextrin, digested placebo LMP formulation, read-out: Equilibrium solubility of crystalline active in digested LMP formulations",121 µg/mL
same,solubility thermodynamic,"pH 6.5, fassif, same fasted intestinal medium, without digested lipid formulation, read-out: Equilibrium solubility of the crystalline active in digestion medium",27 µg/mL
